Experiments:
[1] = biological target: T1, human testosterone 5α-reductase-1 (Homo sapiens, UniProt P18405); test: in vitro inhibition of cloned human testosterone 5α-reductase-1 (test method 4); format: biochemical
T1 construct: expressed in transfected cells
T1 sequence (P18405 1-259): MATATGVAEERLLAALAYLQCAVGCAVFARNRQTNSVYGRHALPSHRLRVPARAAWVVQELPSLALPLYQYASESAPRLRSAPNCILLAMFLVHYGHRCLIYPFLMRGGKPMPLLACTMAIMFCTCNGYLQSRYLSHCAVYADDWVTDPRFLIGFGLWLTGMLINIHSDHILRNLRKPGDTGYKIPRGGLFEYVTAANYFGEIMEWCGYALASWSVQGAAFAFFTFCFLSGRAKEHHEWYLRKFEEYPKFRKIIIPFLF
Description: (4) The compounds of the formula (I) may be tested in vitro for human testosterone 5α-reductase-1 inhibitory activity using cloned human testosterone 5α-reductase-1 according to the procedure described in Proc. Natl. Acad. Sci. USA, 87, 3640 (1990).
(§1) The data were obtained using test method (4) set out on page 27 of the specification and test method (2) described on pages 24 to 26 of the specification, respectively.

[2] = biological target: T2, human testosterone 5α-reductase-2 (Homo sapiens, UniProt P31213); test: in vitro inhibition of human testosterone 5α-reductase-2 from hyperplastic human prostate tissue (test method 2); format: biochemical; settings: hyperplastic human prostate particulate, pH 5.2, 37° C., 30 minutes
T2 construct: using tissue from hyperplastic human prostates; from tissue; host or cells: hyperplastic human prostate, 100,000G particulate preparation
T2 sequence (P31213 1-254): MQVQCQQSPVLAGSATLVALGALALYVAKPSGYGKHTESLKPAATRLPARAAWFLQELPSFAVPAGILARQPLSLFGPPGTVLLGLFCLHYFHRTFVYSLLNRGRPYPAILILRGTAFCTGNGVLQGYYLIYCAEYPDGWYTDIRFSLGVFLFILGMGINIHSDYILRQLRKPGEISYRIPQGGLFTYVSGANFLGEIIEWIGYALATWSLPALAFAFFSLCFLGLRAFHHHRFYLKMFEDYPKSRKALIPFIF
Experimental: (2) The compounds of the formula (I) may be tested for their potency in inhibiting human testosterone 5α-reductase-2 using tissue from hyperplastic human prostates. In determining inhibitory potency against human prostatic 5α-reductase-2 the following procedure was employed:
Frozen human prostate tissue was pulverised in liquid nitrogen using a steel mortar and pestle. The powdered tissue was homogenised in 4 volumes of Buffer A (20 mM sodium phosphate, pH 6.5, containing 0.32M sucrose, 1 mM dithiothreitol and 50 μM NADPH) with an Ultra-Turrax homogeniser (Janke and Kunkel GmBH & Co., Staufen i. BR., Germany). The homogenate was centrifuged at 500G for 5 minutes to remove large particles of tissue, and the supernatant was then centrifuged at 100,000G for 1 hour. The resulting pellet was dispersed in Buffer A (1 ml per g of prostate tissue originally used) with the Ultra-Turrax homogeniser. This particulate preparation was then filtered through 2 layers of cheesecloth and the filtrate was stored as 2ml samples at -70° C.
The following components, dissolved in Buffer B (25 mM citrate phosphate buffer, pH 5.2), were added to a test tube: 100 μl of [^3 H]-testosterone (1 μCi, 1 nmol; Du Pont, NEN Research Products, Stevenage, U.K.), 100 μl of NADPH regeneration system (5 mM NADPH, 50 mM glucose 6-phosphate, 5 units/ml glucose 6-phosphate dehydrogenase), a compound of the formula (I) dissolved in 5 μl of dimethyl sulphoxide, and Buffer B to give a final reaction volume of 1 ml. The mixture was warmed to 37° C. and the reaction started by addition of an aliquot of prostate particulate suspension. The reaction mixture was incubated at 37° C. for 30 minutes and was then quenched by addition, with vigorous mixing, of 2 ml of ethyl acetate containing 20 μg each of testosterone and 5α-dihydrotestosterone as carriers. The aqueous and organic layers were separated by centrifugation at 2000 G for 10 minutes. The organic layer was transferred to a second test tube and evaporated to dryness under nitrogen. The residue was dissolved in 50-80μl of absolute ethanol, spotted onto a silica gel 60 F254 TLC plate (E. Merck, Darmstadt, Germany) and developed in dichloromethane:acetone (185:15).
The radiochemical content in the bands of the substrate (testosterone) and the product (5α-dihydrotestosterone) were determined with a RITA Radio TLC Analyser (Raytest Instruments Ltd., Sheffield, U.K.). The percent of recovered radiolabel converted to 5α-dihydrotestosterone was calculated and used to determine enzyme activity. All incubations were conducted so that no more than 15% of substrate (testosterone) was converted to product.
The experimentally obtained data for a range of inhibitor concentrations was computer fitted to a sigmoidal dose-response curve and concentrations of compound giving 50% inhibition of 5α-reductase activity (IC50 's) were calculated using a SIGFIT program (De Lean, A., Munson, P. J. and Rodbard, D., American Journal of Physiology, 235, E97 (1978)).
as §1

Row | SMILES | IC50 [1] [nM] | IC50 [2] [nM]
1 | CCCCC1(c2ccc(CCC)cc2)Oc2ccc(CC(=O)c3cn(CCCC(=O)O)c4ccccc34)cc2O1 (stereo not drawn) [Example 1, 4-(3-[(2-n-Butyl-2-[4-n-propyl]phenyl-1,3-benzodioxolan-5-yl)methylcarbonyl]indol-1-yl)butanoic acid] | 15.5 | 6.9
2 | CCCCCCC1(c2ccc(CCC)cc2)Oc2ccc(CC(=O)c3cn(CCCC(=O)O)c4ccccc34)cc2O1 (stereo not drawn) [Example 2] | 24 | 16.7
3 | CCCc1ccc(C2(CCC)Oc3ccc(CC(=O)c4cn(CCCC(=O)O)c5ccccc45)cc3O2)cc1 (stereo not drawn) [Example 3] | 14 | 13.3
4 | CCCCCC1(c2ccc(CCC)cc2)Oc2ccc(CC(=O)c3cn(CCCC(=O)O)c4ccccc34)cc2O1 (stereo not drawn) [Example 4] | 11 | 16.9
5 | CCCCC1(c2ccc(CC)cc2)Oc2ccc(CC(=O)c3cn(CCCC(=O)O)c4ccccc34)cc2O1 (stereo not drawn) [Example 5, 4-(3-[(2-n-butyl-2-[4-ethyl]phenyl-1,3-benzodioxolan-5-yl)methylcarbonyl]indol-1-yl)butanoic acid] | 11 | 4.5
6 | CCCCC1(c2ccc(CCC)cc2)Oc2ccc(CC(=O)c3cn(CCCC(=O)O)c4ccccc34)cc2O1 (stereo not drawn) [Example 6] | 17.5 | 2.3

Source: patent US5696146A, “Indole derivatives as steroid 5α-reductase inhibitors” (Pfizer Inc., priority 1993, dated 1997)
